Tested on: HBV
Test: Efficacy of and drug resistance to antiviral drugs in humanized rat model of chronic hepatitis B (HBV viral load)
Assay type: in vivo
Settings: humanized rats with chronic hepatitis B; therapeutic dose; 1, 2, 4, 8, 12 and 24 weeks after treatment; FIG. 2
Procedure: The Study of Efficacy of and Drug Resistance to the Antiviral Drugs Using a Humanized Rat Model of Chronic Hepatitis B • 1. 200 humanized rats with chronic hepatitis B were randomly divided into four groups. There were no significant differences in age, gender, weight and baseline of HBV viral load among the groups. • 2. Therapeutic dose of commonly used antiviral drugs lamivudine, telbivudine, entecavir and tenofovir were administered to each of the four groups, respectively. • 3. At 1 week, 2 weeks, 4 weeks, 8 weeks, 12 weeks and 24 weeks after the treatment, the viral load of HBV in each group of rats was detected, respectively. • 4. Curves were plotted based on the viral load in each group at each time point. The difference between the groups was compared to evaluate the efficacy of and drug resistance to existing commonly used antiviral drugs.

## C[C@H](Cn1cnc2c(N)ncnc21)OCP(=O)(O)O [tenofovir]
  drop of the viral titer curves (viral load of HBV): superior to those of the telbivudine group and the lamivudine group

## C=C1[C@H](CO)[C@@H](O)C[C@@H]1n1cnc2c(=O)[nH]c(N)nc21 [entecavir]
  drop of the viral titer curves (viral load of HBV): superior to those of the telbivudine group and the lamivudine group

From patent US20190209712A1, “HUMANIZED MURINE MODEL OF CHRONIC HEPATITIS B CONSTRUCTED USING STEM CELLS AND METHOD OF USING SAME” (Zhejiang University, priority 2017, published 2019)
